Laboratory results reported in patent publication US20190282558A1, “Methods of Treating Zika Virus Infection” (Emergent Virology LLC, priority 2016, published 2019).
Read-outs that look alike come from different tables or passages of the source.

What was measured:
[1] = tested on: Zika virus, FSS 13025 strain (ZIKV, Cambodia 2010); test: Yield reduction assay followed by plaque assay in Vero cells, ZIKV Cambodia 2010; assay type: cell-based; conditions: for IC50: Zika virus, 96 h, read-out: ZIKV, Cambodian 2010 IC50; for IC50 (summary in words): summary of Table 3
Method: (§1) The iminosugar compounds set forth in Table 4, below, were evaluated for antiviral activity against Zika virus, FSS 13025 strain (ZIKV, Cambodia 2010) and PR ABC strain (ZIKV, PR2015) in an yield reduction assay followed by a plaque assay.
In the yield reduction assay, Vero cells were seeded in 24-well plates and incubated overnight. The next day, serial dilutions of a given compound were prepared at 300 μM, 100 μM, 30 μM, 10 μM, and 3.0 μM. Growth medium was removed from the cells and the serial dilutions of the given compound were added in duplicate for one hour. Zika virus, FSS 13025 strain (ZIKV, Cambodia 2010) was added at a multiplicity of infection (MOI) of 0.01 for one hour. Growth medium was added to 1 mL and the cells were incubated for 4 days. Thereafter, cell supernatants were harvested, cleared of cell debris by centrifugation, and stored at −80° C. until further analysis for viral content in a plaque assay.
Plaque assays were performed by seeding Vero cells in 24-well plates and allowing the cells to adhere overnight. The next day each of the harvested supernatants from the yield-reduction assay were serially diluted 10-fold, growth medium was removed from the cells, and the adhered cells were infected with the dilutions of the supernatants for 1 h. Methylcellulose was added and the cells were incubated for 3 days. Plaques were visualized by staining the cell monolayer with crystal violet. Relative inhibition was calculated using IDBS XLFIT analysis program.
(§2) The duplicate titers for virus-only (vehicle control) were averaged and used as 0% inhibition. Efficacy data for the compounds were reported as the mean of the duplicates, including the standard deviation (SD) and coefficient of variation (% CV). FIGS. 2A, 2B, 3A, 3B, 4A, 4B, 5A, 5B, 6A, 6B, 7A, 7B, 8A, 8B, 9A, 9B, 10A, 10B, 11A, 11B, 12A, 12B, 13A, 13B, 14A, 14B, and 15 show the in vitro inhibitory effect of the iminosugar compounds against Zika virus, FSS 13025 strain, as set forth in Table 3 below.

[2] = In vitro cell cytotoxicity (CellTiter-Glo) in Vero cells; assay type: cell-based; conditions: African green monkey, 3-5 days, max concentration 500 or 1000 μM, * = average of two values
[3] = tested on: Zika virus, PR ABC strain (ZIKV, PR2015); test: Yield reduction assay followed by plaque assay in Vero cells, ZIKV PR2015; assay type: cell-based; conditions: 120 h, read-out: ZIKV, PR2015 IC50
Method: as §1
In the yield reduction assay, Vero cells were seeded in 24-well plates and incubated overnight. The next day, serial dilutions of a given compound were prepared at 200 μM, 100 μM, 20 μM, 4 μM, 0.8 μM, 0.16 μM, 0.03 μM, and 0.01 μM. Growth medium was removed from the cells and the serial dilutions of the given compound were added in duplicate for one hour. Zika virus, PR ABC strain (ZIKV, PR2015) was added at a multiplicity of infection (MOI) of 0.01 for one hour. Growth medium was added to 1 mL and the cells were incubated for 5 days. Thereafter, cell supernatants were harvested, cleared of cell debris by centrifugation, and stored at −80° C. until further analysis for viral content in a plaque assay.
Plaque assays were performed by seeding Vero cells in 24-well plates and allowing the cells to adhere overnight. The next day each of the harvested supernatants from the yield-reduction assay were serially diluted 10-fold, growth medium was removed from the cells, and the adhered cells were infected with the dilutions of the supernatants for 1 h. The cells were incubated with 0.8% carboxymethyl cellulose (CMC) for 3 days. At the end of the incubation, CMC overlay was removed, and the cells were permeabilized with an 80%/20% (V/V) mixture of ethanol and methanol for 10 min at −20° C. Plaques were visualized by performing an immunostaining assay with monoclonal 4G2 (ATCC) which was detected by HRP-conjugated goat anti-mouse antibody and visualized using HRP-conjugated goat anti-mouse polyclonal antibodies. Relative inhibition was calculated using IDBS XLFIT analysis program.
as §2

[4] = tested on: Zika virus (isolate FSS13025 of the Asian genotype); test: Efficacy against lethal Zika virus infection in AG129 mice; assay type: in vivo; conditions: 1E2 FFU Zika virus, 750 mg/kg once daily for three days by oral gavage, starting 16 hours after exposure, vs vehicle (FIG. 1)
Method: AG129 mice, aged 5-7 weeks, of both sexes were divided into groups of eight mice each. Mice were infected with 1E2 FFU of Zika virus (isolate FSS13025 of the Asian genotype). The mice were treated 16 hours after exposure. One group was administered 750 mg/kg of UV-4 once daily for three days. UV-4 was formulated in water and all doses were administered via oral gavage in a volume of 100 μL. A control group was administered vehicle (water) only. Predefined study endpoints were mortality, euthanasia due to severe morbidity, or termination after 10 days total. Weights were measured and health scores were determined daily.

[5] = Vero cells, MOI 0.01, 4 days, plaque assay of supernatants, * = average of multiple data points
[6] = Vero cells, MOI 0.01, 5 days, plaque assay with immunostaining, * = average of multiple data points

## OC[C@@H]1[C@@H](O)[C@H](O)[C@@H](O)CN1CCCCCCCCC1CCCO1 (stereo partly drawn) [Compound 1, (2R,3R,4R,5S)-2-(hydroxymethyl)-1-(8-(tetrahydrofuran-2-yl)octyl)piperidine-3,4,5-triol]
[1]; [5]
  IC50: 45.7 µM
[2]
  CC50: > 500 µM
[3]; [6]
  IC50: 69.6 µM

## COC(C)(C)CCCCCCCCN1C[C@H](O)[C@@H](O)[C@H](O)[C@H]1CO [Compound 2, (2R,3R,4R,5S)-2-(hydroxymethyl)-1-(9-methoxy-9-methyldecyl)piperidine-3,4,5-triol]
[1]; [5]
  IC50: 10.1 µM
[1]
  IC50 (summary in words): low micromolar activity
[2]
  CC50: > 500 µM
[3]; [6]
  IC50: 12.6 µM

## O=[N+]([O-])c1cc(N2CCOCC2)ccc1NCCCCCCN1C[C@H](O)[C@@H](O)[C@H](O)[C@H]1CO [Compound 8, (2R,3R,4R,5S)-2-(hydroxymethyl)-1-(6-((4-morpholino-2-nitrophenyl)amino)hexyl)piperidine-3,4,5-triol]
[1]; [5]
  IC50: > 100 µM
[2]
  CC50: > 1000 µM
[3]; [6]
  IC50: > 100 µM

## CN(C)Cc1ccc(NCCCCCCN2C[C@H](O)[C@@H](O)[C@H](O)[C@H]2CO)c([N+](=O)[O-])c1 [Compound 11, (2R,3R,4R,5S)-1-(6-((4-((dimethylamino)methyl)-2-nitrophenyl)amino)hexyl)-2-(hydroxymethyl)piperidine-3,4,5-triol]
[1]; [5]
  IC50: > 100 µM
[2]
  CC50: > 1000 µM
[3]; [6]
  IC50: > 100 µM

## [N-]=[N+]=Nc1ccc([N+](=O)[O-])c(NCCCCCCN2C[C@H](O)[C@@H](O)[C@H](O)[C@H]2CO)c1 [Compound 12, (2R,3R,4R,5S)-1-(6-((5-azido-2-nitrophenyl)amino)hexyl)-2-(hydroxymethyl)piperidine-3,4,5-triol]
[1]; [5]
  IC50: 38.7 µM
[1]
  IC50 (summary in words): low micromolar activity
[2]
  CC50: 140 µM
[3]; [6]
  IC50: 94.6 µM

## CN1CCN(Cc2ccc(NCCCCCCN3C[C@H](O)[C@@H](O)[C@H](O)[C@H]3CO)c([N+](=O)[O-])c2)CC1 [Compound 15, (2R,3R,4R,5S)-2-(hydroxymethyl)-1-(6-((4-((4-methylpiperazin-1-yl)methyl)-2-nitrophenyl)amino)hexyl)piperidine-3,4,5-triol]
[1]; [5]
  IC50: 12.1 µM
[1]
  IC50 (summary in words): low micromolar activity
[2]
  CC50: > 1000 µM
[3]; [6]
  IC50: 150 µM

## COCCCCCCCCCN1C[C@H](O)[C@@H](O)[C@H](O)[C@H]1CO [UV-4, (2R,3R,4R,5S)-2-(hydroxymethyl)-1-(9-methoxynonyl)piperidine-3,4,5-triol]
[1]; Vero
  IC50: > 100 µM
[2]
  CC50: > 1000 µM
[4]
  survival: statistically significant survival benefit
[3]; Vero
  IC50: > 100 µM

## [N-]=[N+]=Nc1ccc(NCCCCCCN2C[C@H](O)[C@@H](O)[C@H](O)[C@H]2CO)c([N+](=O)[O-])c1 [UV-5, (2R,3R,4R,5S)-1-(6-((4-azido-2-nitrophenyl)amino)hexyl)-2-(hydroxymethyl)piperidine-3,4,5-triol]
[1]; Vero
  IC50: 4.42 µM
[1]
  IC50 (summary in words): low micromolar activity
[2]
  CC50: 77.3 µM
[3]; Vero
  IC50: 5.24 µM
